Test results: US20180057507A1, “INHIBITORS OF DUAL LEUCINE ZIPPER (DLK) KINASE FOR THE TREATMENT OF DISEASE” (Board of Regents, The University of Texas System, priority 2016, published 2018)
pIC50, pKd: −log10 of the molar value.

Key:
human DLK [1] = target: T1, human DLK (Homo sapiens, UniProt Q12852); experiment: DLK Kd Determinations (KINOMEscan KdELECT, DiscoveRx); set-up: full length of human DLK (amino acids 1-859); host or cells: transiently transfected HEK293 cells; unpurified extract; conditions: fusion protein of full length human DLK (amino acids 1-859) and NFkB DNA binding domain; qPCR readout; duplicate
T1 sequence (Q12852 1-859): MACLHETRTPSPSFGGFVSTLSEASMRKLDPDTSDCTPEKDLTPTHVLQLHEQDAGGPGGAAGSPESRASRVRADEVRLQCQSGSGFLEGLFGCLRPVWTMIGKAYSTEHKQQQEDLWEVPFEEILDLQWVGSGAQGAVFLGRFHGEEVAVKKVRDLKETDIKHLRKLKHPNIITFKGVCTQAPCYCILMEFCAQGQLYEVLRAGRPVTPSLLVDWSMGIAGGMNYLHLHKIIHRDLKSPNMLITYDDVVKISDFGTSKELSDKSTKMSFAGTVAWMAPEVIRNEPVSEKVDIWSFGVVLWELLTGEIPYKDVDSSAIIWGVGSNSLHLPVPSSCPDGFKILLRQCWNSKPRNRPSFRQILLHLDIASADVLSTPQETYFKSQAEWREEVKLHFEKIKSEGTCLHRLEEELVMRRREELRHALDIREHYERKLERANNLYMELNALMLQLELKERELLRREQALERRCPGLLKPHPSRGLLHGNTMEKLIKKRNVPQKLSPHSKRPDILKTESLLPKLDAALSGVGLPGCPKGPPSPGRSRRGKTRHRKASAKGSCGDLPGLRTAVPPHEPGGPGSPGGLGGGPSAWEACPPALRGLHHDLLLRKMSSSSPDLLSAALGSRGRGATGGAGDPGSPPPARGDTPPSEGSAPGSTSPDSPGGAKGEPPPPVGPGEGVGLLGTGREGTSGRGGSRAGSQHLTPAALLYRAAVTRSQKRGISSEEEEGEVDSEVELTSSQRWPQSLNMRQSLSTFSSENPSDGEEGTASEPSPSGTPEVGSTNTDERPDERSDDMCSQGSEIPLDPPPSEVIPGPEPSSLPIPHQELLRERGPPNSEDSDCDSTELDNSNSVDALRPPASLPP
Summary of the method: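 Competition binding of full-length human DLK (aa 1-859)-NFkB DBD fusion, DNA-tagged, from HEK293 extracts against an immobilized ligand; 1 h at room temperature, 0.9% DMSO. Bead-bound kinase was quantified by qPCR. Kd came from an 11-point 3-fold series (top 30,000 nM), in duplicate, with Hill slope fixed at −1.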

human DLK [2] = target: T1, human DLK; experiment: Phospho-cJun Cellular Assay; assay type: cell-based; set-up: expressed in transfected cells; conditions: HEK293 cells stably transfected with Dox-inducible human DLK; p-cJun (Ser63); 5 h compound incubation
Summary of the method: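 HEK293 cells with doxycycline-induced human DLK (induced 20 h; uninduced cells as negative control) treated with compound for 5 h at 37 °C. Phospho-cJun (Ser63) measured in lysates with detection-antibody kit; IC50 from variable-slope dose-response fit.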

| pKd (human DLK [1]) | pIC50 (human DLK [2]) | SMILES |
| --- | --- | --- |
| 7.43 | 6.24 | Nc1ncc(-c2cn([C@H]3[C@@H]4CC(N5CCCOCC5)C[C@@H]43)c(C3CC3)n2)cc1OC(F)(F)F (stereo partly drawn) [Example 149, 5-(1-(3-(1,4-oxazepan-4-yl)bicyclo[3.1.0]hexan-6-yl)-2-cyclopropyl-1H-imidazol-4-yl)-3-(trifluoromethoxy)pyridin-2-amine] |
| 7.27 | 5.96 | CN1CCN(C2C[C@@H]3[C@H](C2)[C@H]3n2cc(-c3cnc(N)c(OC(F)F)c3)nc2C2CC2)CC1 (stereo partly drawn) [Example 150, 5-(2-cyclopropyl-1-(3-(4-methylpiperazin-1-yl)bicyclo[3.1.0]hexan-6-yl)-1H-imidazol-4-yl)-3-(difluoromethoxy)pyridin-2-amine] |
| 7.92 | 6.30 | CC(C)Cc1nc(-c2cnc(N)c(OC(F)(F)F)c2)cn1[C@H]1[C@@H]2CC(N3CCN(C)CC3)C[C@@H]21 (stereo partly drawn) [Example 158, 5-(2-isobutyl-1-(3-(4-methylpiperazin-1-yl)bicyclo[3.1.0]hexan-6-yl)-1H-imidazol-4-yl)-3-(trifluoromethoxy)pyridin-2-amine] |
